Laboratory results from patent publication US11147815B2, “Compositions and methods for treating diseases associated with uncontrolled inflammatory responses” (SF17 THERAPEUTICS, INC., priority 2018, dated 2021).

How the values were obtained:
TRIM8 = target: T1, TRIM8 (Homo sapiens, UniProt Q9BZR9); test: Cell-based screen for TRIM8 inhibition: CXCL9, CXCL10 and CXCL11 accumulation in IFN-γ-stimulated THP-1 cells; conditions: for Normalized Average of IP-10/CXCL10 / Normalized Average of MIG/CXCL9 / Normalized Average of I-TAC/CXCL11 / Effect on inflammatory response (CXCL9, CXCL10, CXCL11 after IFN-γ): THP-1 cells; for Normalized Average of IP-10/CXCL10 / Normalized Average of MIG/CXCL9 / Normalized Average of I-TAC/CXCL11: 10 µM compound 4 hours, then 200 U human IFN-γ, 12 hours, flow cytometer; for Normalized Average of IP-10/CXCL10 / Normalized Average of MIG/CXCL9: degree of change from control (<1 inhibition, >1 enhancement), triplicate; for Normalized Average of I-TAC/CXCL11: degree of change from control, high background in read-out; for Effect on inflammatory response (CXCL9, CXCL10, CXCL11 after IFN-γ) / TRIM8 inhibitor or enhancer activity found on testing: summary in words; for TRIM8 inhibitor or enhancer activity found on testing: Example 4
T1 construct: 20,000 THP-1 cells; endogenous in cells; host or cells: THP-1
T1 sequence (Q9BZR9 1-551): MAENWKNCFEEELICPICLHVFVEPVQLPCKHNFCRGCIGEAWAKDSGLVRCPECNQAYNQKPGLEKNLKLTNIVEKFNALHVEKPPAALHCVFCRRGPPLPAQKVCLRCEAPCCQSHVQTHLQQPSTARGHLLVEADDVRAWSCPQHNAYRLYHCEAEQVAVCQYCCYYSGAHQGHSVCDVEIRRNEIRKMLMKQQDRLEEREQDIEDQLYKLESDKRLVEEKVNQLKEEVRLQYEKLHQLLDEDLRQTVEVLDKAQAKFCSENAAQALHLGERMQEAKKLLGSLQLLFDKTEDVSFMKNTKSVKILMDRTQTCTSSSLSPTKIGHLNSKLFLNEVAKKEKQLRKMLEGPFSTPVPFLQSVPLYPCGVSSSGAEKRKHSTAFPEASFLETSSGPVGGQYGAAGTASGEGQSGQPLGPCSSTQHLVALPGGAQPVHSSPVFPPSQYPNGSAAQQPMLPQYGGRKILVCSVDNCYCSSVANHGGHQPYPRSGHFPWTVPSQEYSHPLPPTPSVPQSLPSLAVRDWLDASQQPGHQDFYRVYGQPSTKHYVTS
Procedure: (§1) A library of small molecule compounds comprising an E2-RING domain or a RING-RING domain was screen for TRIM8 inhibition in a cell-based assay. 20,000 THP-1 cells (a human myeloid cell line which imitates human monocyte cell inflammatory behavior and responds to IFN-γ stimulation by expressing […] CXCL9, CXCL10 and CXCL11) were incubated with […] of each compound (dissolved in DMSO) for 4 hours, then stimulated with 200 U (units) of human IFN-γ. The effect of the stimulation as measured by changes in accumulation levels of the cytokines CXCL9, CXCL10 and CXCL11 in extracellular fluid was determined by flow cytometer after 12 hours and compared to control (IFN-γ stimulation with no compound).
Each compound is identified by its ChemDiv catalog number.
Values in Table 1 are reported as degree of change from the control state. Values less than 1 indicate inhibition of cytokine response, and values greater than 1 indicate enhancement of cytokine response. Smaller values indicate a higher degree of inhibition. Values closer to zero indicate profound inhibition of cytokine response, and thus significant suppression of inflammatory responses conferred via inhibition of TRIM8 by the tested compounds. CXCL11 values are higher due to a high background in their read-out (relatively high CXCL11 values indicate […]). Standard errors reflect the degree of variation seen in the triplicate tests for each compound.

THP-1 cells = test: Cell count in the THP-1 screening assay; type: cell-based, human; conditions: 10 µM compound, IFN-γ stimulation, normalized to control
Procedure: as §1

| SMILES | Normalized Average of IP-10/CXCL10 (TRIM8) | Normalized Average of MIG/CXCL9 (TRIM8) | Normalized Average of I-TAC/CXCL11 (TRIM8) | Effect on inflammatory response (CXCL9, CXCL10, CXCL11 after IFN-γ) (TRIM8) | TRIM8 inhibitor or enhancer activity found on testing (TRIM8) | Average Normalized Cell Count (THP-1 cells) |
| --- | --- | --- | --- | --- | --- | --- |
| COc1ccc(CN2C(=O)NC(=O)/C(=C\c3cccc4ccccc34)C2=O)cc1 [Compound 17, (5E)-1-[(4-methoxyphenyl)methyl]-5-[(naphthalen-1-yl)methylidene]-1,3-diazinane-2,4,6-trione] | 3.640 | 2.545 | 4.410 | significant enhancement of inflammatory response | potent TRIM8 enhancer | 1.435 |
| COc1ccc(-c2n[nH]c3c2C(c2ccccc2)C2=C(CC(C)(C)CC2=O)N3)cc1 (stereo not drawn) [Compound 76, 3-(4-methoxyphenyl)-7,7-dimethyl-4-phenyl-1H,4H,5H,6H,7H,8H,9H-pyrazolo[3,4-b]quinolin-5-one] | 0.352 | 0.085 | <LLOD | significant inhibition of inflammatory response | powerful TRIM8 inhibitor | 1.196 |
| COc1ccc(N2CCN(C(=O)c3cc4ccc5cccnc5c4[nH]3)CC2)cc1 [Compound 81, 1-(4-methoxyphenyl)-4-{1H-pyrrolo[3,2-h]quinoline-2-carbonyl}piperazine] | 0.334 | 0.138 | 0.617 | significant inhibition of inflammatory response | strong inhibitor of TRIM8 | 1.070 |
| COc1ccc(Sc2ccc(=O)n(-c3ccc(C(=O)NCCCc4ccccc4)cc3)n2)cc1 [Compound 88, 4-{3-[(4-methoxyphenyl)sulfanyl]-6-oxo-1,6-dihydropyridazin-1-yl}-N-(3-phenylpropyl)benzamide] | 0.127 | 0.019 | 0.744 | significant inhibition of inflammatory response | highly potent TRIM8 inhibitor | 0.837 |
| O=C(NCCCc1ccccc1)c1n[nH]c2c1CN(C(=O)c1cc(F)ccc1F)CC2 [Compound 120, 5-(2,5-difluorobenzoyl)-N-(3-phenylpropyl)-1H,4H,5H,6H,7H-pyrazolo[4,3-c]pyridine-3-carboxamide] | 0.468 | 0.188 | 0.426 | significant inhibition of inflammatory response | TRIM8 inhibitor | 0.960 |
| CCc1cccc2c(C(CC(=O)N3CCN(c4ccc([N+](=O)[O-])cc4)CC3)c3cccc4c3OCO4)c[nH]c12 (stereo not drawn) [Compound 130, 3-(2H-1,3-benzodioxol-4-yl)-3-(7-ethyl-1H-indol-3-yl)-1-[4-(4-nitrophenyl)piperazin-1-yl]propan-1-one] | 0.794 | 7.574 | 0.806 | significant enhancement of inflammatory response | potent TRIM8 enhancer | 1.135 |
